Data from US11203770B2, “Methods for producing caprylic acid and/or caprylate” (Cornell University, priority 2016, dated 2021).

Legend:
reactor microbiome = test: inhibition of the chain-elongating reactor microbiome in the continuously fed upflow anaerobic filter; type: cell-based; conditions: for high residual concentration that inhibits microbial activity: bioreactor broth, mildly acidic pH, n-caprylic acid as undissociated acid
Experimental: Experimental. Continuously fed bioreactor system. An upflow anaerobic filter was used with constant bioreactor broth recycling through an in-line membrane liquid-liquid extraction (i.e. pertraction) system (FIG. 8). The bioreactor was a vertically oriented cylinder, which was made of Plexiglas®, with an inner diameter of 6 cm. The total volume was 0.90 L, but […]1 packing material (Evolution Aqua, Wigan, United Kingdom) was added, resulting in a working volume of 0.70 L. […] A pH probe (Mettler 405-[…], Columbus, Ohio, USA) was mounted at the top of the bioreactor. Automated pH control of the bioreactor broth was maintained with a controller (Eutech Instruments alpha-pH800, Vernon Hills, Ill., USA) and a corresponding acid addition pump ([…] 913, Bradenton, Fla., USA). […] The effluent continuously exited the bioreactor via an overflow line connected to the top of the bioreactor. The exit of the overflow line was submerged within a secondary effluent reservoir. An inverted funnel was used to collect the biogas within the bioreactor and was connected to a flow meter (Ritter MGC-1, Bochum, Germany). In addition, a gas-sample septum and a bubbler were placed in the gas collection system. A sampling port for biomass samples was placed halfway up the vertically oriented bioreactor. Periods for the bioreactor study. This bioreactor was divided into two phases: I) a start-up phase with continuous feeding (with the product extraction system on or off); and II) a high n-caprylate productivity phase (with continuous feeding and the product extraction system on). Each phase was then divided into several distinct operating periods. From period to period, several operating parameters were varied, including the: organic loading rate (OLR); HRT; bioreactor pH; and operation with or without product extraction (Table 1). Each operating period was operated for at least five HRT periods, and average bioreactor loading rates and concentrations were reported. During Period 1 in Phase I (Days 0-15), pre-washed inoculum was added to the upflow anaerobic filter after which a continuous feeding strategy was initiated. […] The bioreactor was re-inoculated on Day 15 of Period 2 in Phase I (Days 15-54) with pre-washed inoculum, and then again on Day 54 of Period 3 of Phase I (Days 54-64) with non-washed inoculum. This last inoculation carried some carboxylates from the inoculation bioreactor. During Period 4 of Phase I (Days 64-80), the product extraction was turned off. […] In addition, we increased the OLR from 1.8 to 3.8 g COD/L-d (Table 2). Day 98 represented the start of Phase II (Period 6; Days 98-128), by switching on the product extraction system. Next, we increased the OLRs in a step-wise fashion during 4 out of the next 5 periods in Phase II. […]

[1] = cited from earlier work
methanogens = test: toxicity to methanogens in small serum bottles; type: cell-based; conditions: concentrations present in the bioreactor
Excerpt: Thus, at a pH of 7.0 we would have anticipated a methanogenic anaerobic digester rather than a chain elongating bioreactor. […] This explains why we can chain elongate at the higher pH levels without adding a methanogenic-inhibiting compound such as bromo-ethanesulfonate (BrES). […] This substantiates the claim that we can operate a chain elongating bioreactor sustainably at a pH level of 7.0.

Row | SMILES | residual ethanol concentration at which microbial inhibition was reached (reactor microbiome; Period 11, bioreactor broth) [g COD/L] | high residual concentration that inhibits microbial activity (reactor microbiome) [mM] | solubility limit of the undissociated acid [1] [mM] | toxic concentration, times lower than n-caproic acid (reactor microbiome; undissociated acids, toxicity to the community) | toxicity of undissociated acid to methanogens (methanogens)
1 | CCO [ethanol] | ~28 | ~300 | – | – | –
2 | CCCCCC(=O)O [n-caproic acid] | – | – | 93 | – | –
3 | CCCCCCCC(=O)O [n-caprylic acid] | – | 0.62 | – | approximately 10 × | toxic
